Drawing on patent US9873690B2, “3-indol substituted derivatives, pharmaceutical compositions and methods for use” (Pfizer Inc., priority 2015, dated 2018), this text covers IC50 for 27 compounds.

The target of this assay is T1, hTDO2 (Homo sapiens, UniProt P48775).
T1 construct: endogenous in cells; host or cells: A172 human brain glioblastoma cells (ATCC CRL-1620)
T1 sequence (P48775 whole entry): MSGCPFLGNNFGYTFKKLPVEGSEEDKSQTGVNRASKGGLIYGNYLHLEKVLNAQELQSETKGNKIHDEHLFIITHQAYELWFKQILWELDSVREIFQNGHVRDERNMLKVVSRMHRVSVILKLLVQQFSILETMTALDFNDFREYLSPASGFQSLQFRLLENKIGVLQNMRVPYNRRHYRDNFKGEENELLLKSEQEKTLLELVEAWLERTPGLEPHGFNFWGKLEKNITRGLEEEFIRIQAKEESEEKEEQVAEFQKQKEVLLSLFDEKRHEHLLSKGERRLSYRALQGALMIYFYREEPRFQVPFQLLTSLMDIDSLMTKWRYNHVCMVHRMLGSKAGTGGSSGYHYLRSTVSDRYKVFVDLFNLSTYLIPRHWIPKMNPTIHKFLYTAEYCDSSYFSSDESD
Briefly: Cellular assay for TDO2 activity determination in A172 cells. Type of assay: cell-based. The following applies: human glioblastoma A172 cells naturally expressing hTDO2; overnight incubation; kynurenine by absorbance at 480 nm. The protocol:
The compounds of formula I inhibit the activity of human TDO2 in cells that constitutively express TDO2, such as A172 cells. A172 is a cell line derived from human brain glioblastoma cells. The cells are available from the American Type Culture Collection (ATCC®) as CRL-1620™.
The assay (adapted from Pilotte L et al., Proc Natl Acad Sci USA, 2012, 109(7), 2497-502) was performed in 96-well flat bottom plates seeded with human glioblastoma A172 cells, naturally expressing hTDO2 (prepared as described in Tilman et al., Mol Cancer, 2007, 17(6), 80), at a concentration of 1.25×10^4 cells/well in a final volume of 200 μL. To determine TDO, the cells were incubated overnight at 37° C. at 5% CO2 in IMDM (Invitrogen) supplemented with 2% FBS and 2% penicillin/streptomycin in the presence of the compounds of the present invention, at different concentrations.
The plates were then centrifuged 5 min at 1000 rpm, and 100 μL of the supernatant were collected in a conical plate, 30 μL of TCA 30% were added and a further centrifuged at 3000×g for 10 minutes. 100 μL of the supernatant were collected in a flat bottomed plate and 100 μL of 2% (w/v) 4-(dimethylamino)-benzaldehyde in acetic acid and incubated for 5 min at room temperature. Kynurenine concentrations were determined by measuring the absorbance at 480 nm. A standard curve was made with pure kynurenine. The TDO activity was measured as described above using ten serial concentrations of the compounds of the present invention. Data were fitted using the Prism™ software (GraphPad Software, Inc.) using standard parameters.
The biological activity of representative compounds in human brain glioblastoma cells as determined in the above-referenced assay is summarized in the following table: […]
One may read the IC50 as the concentration at which inhibition is half-maximal. High values mean lower potency, low ones higher potency. On to `CC1c2cc(-c3c[nH]c4cc(F)ccc34)ccc2S(=O)(=O)N1CC1CCN(C)CC1` (single isomer, unassigned; (+)) [Example 80, (+)-5-(6-fluoro-1H-indol-3-yl)-3-methyl-2-((1-methylpiperidin-4-yl)methyl)-2,3-dihydrobenzo[d]isothiazole 1,1-dioxide], for which the IC50 is 56 nM.

`CC1c2cc(-c3c[nH]c4cc(F)ccc34)ccc2S(=O)(=O)N1C[C@@H](O)CO` (single isomer, unassigned; (+)) [Example 94] yielded an IC50 of 39 nM.

On to `CC(=O)NCC1NS(=O)(=O)c2ccc(-c3c[nH]c4cc(F)ccc34)cc21` (single isomer, unassigned; (-)) [Example 23, (−)-N-((5-(6-fluoro-1H-indol-3-yl)-1,1-dioxido-2,3-dihydrobenzo[d]isothiazol-3-yl)methyl)acetamide], for which half-maximal inhibition (IC50) was put at 1020 nM.

Turning to `CC(=O)N1CCC(N2C(C)c3cc(-c4c[nH]c5cc(F)ccc45)ccc3S2(=O)=O)C1` (single isomer, unassigned; (+)) [Example 74, (+)-1-(3-(5-(6-fluoro-1H-indol-3-yl)-3-methyl-1,1-dioxidobenzo[d]isothiazol-2(3H)-yl)pyrrolidin-1-yl)ethanone], the IC50 worked out at 254 nM.

The compound `O=S1(=O)c2ccc(-c3c[nH]c4cc(F)ccc34)cc2CN1C[C@H](O)CO` [Example 34, (S)-2-(2,3-dihydroxypropyl)-5-(6-fluoro-1H-indol-3-yl)-2,3-dihydrobenzo[d]isothiazole 1,1-dioxide] had an IC50 of 103 nM.

`CN(C)CC1NS(=O)(=O)c2ccc(-c3c[nH]c4cc(F)ccc34)cc21` (single isomer, unassigned; (+)) [Example 26, (+)-3-((dimethylamino)methyl)-5-(6-fluoro-1H-indol-3-yl)-2,3-dihydrobenzo[d]isothiazole 1,1-dioxide]: the IC50 turned out to be 437 nM.

`CC(=O)N1CCC(N2C(C)c3cc(-c4c[nH]c5cc(F)ccc45)ccc3S2(=O)=O)C1` (single isomer, unassigned; (-)) [Example 75, (−)-1-(3-(5-(6-fluoro-1H-indol-3-yl)-3-methyl-1,1-dioxidobenzo[d]isothiazol-2(3H)-yl)pyrrolidin-1-yl)ethanone] came in with an IC50 of 49 nM.

Consider `O=S1(=O)c2ccc(-c3c[nH]c4cc(F)ccc34)cc2C(CO)N1CCO` (single isomer, unassigned; (+)) [Example 131, (+)-5-(6-fluoro-1H-indol-3-yl)-2-(2-hydroxyethyl)-3-(hydroxymethyl)-2,3-dihydrobenzo[d]isothiazole 1,1-dioxide], for which the IC50 came to 182 nM.

Take `CC(=O)NCC1NS(=O)(=O)c2ccc(-c3c[nH]c4cc(F)ccc34)cc21` (single isomer, unassigned; (+)) [Example 24, (+)-N-((5-(6-fluoro-1H-indol-3-yl)-1,1-dioxido-2,3-dihydrobenzo[d]isothiazol-3-yl)methyl)acetamide]: the IC50 turned out to be 255 nM.

For `CC1c2cc(-c3c[nH]c4cc(F)ccc34)ccc2S(=O)(=O)N1C[C@@]1(C)CCC(=O)N1` (single isomer, unassigned; (-)) [Example 83], inhibition was half-maximal at 152 nM (IC50).

The compound `CC1c2cc(-c3c[nH]c4cc(F)ccc34)ccc2S(=O)(=O)N1CCC(=O)N1CCNCC1` (single isomer, unassigned; (-)) [Example 50, (−)3-(5-(6-fluoro-1H-indol-3-yl)-3-methyl-1,1-dioxidobenzo[d]isothiazol-2(3H)-yl)-1-(piperazin-1-yl)propan-1-one] displayed an IC50 of 336 nM.

As for `O=S1(=O)c2ccc(-c3c[nH]c4cc(F)ccc34)cc2CN1C1CNC1` [Example 40, 2-(azetidin-3-yl)-5-(6-fluoro-1H-indol-3-yl)-2,3-dihydrobenzo[d]isothiazole 1,1-dioxide], inhibition was half-maximal at 859 nM (IC50).

Compound `O=S1(=O)NC(CCO)c2cc(-c3c[nH]c4cc(F)ccc34)ccc21` (single isomer, unassigned; (-)) [Example 29, (−)-5-(6-fluoro-1H-indol-3-yl)-3-(2-hydroxyethyl)-2,3-dihydrobenzo[d]isothiazole 1,1-dioxide] displayed an IC50 of 126 nM.

In the case of `CN1CCC(N2Cc3cc(-c4c[nH]c5cc(F)ccc45)ccc3S2(=O)=O)CC1` [Example 37, 5-(6-fluoro-1H-indol-3-yl)-2-(1-methylpiperidin-4-yl)-2,3-dihydrobenzo[d]isothiazole 1,1-dioxide], half-maximal inhibition (IC50) required 196 nM.

In turn, `CNC(=O)C(O)CN1C(C)c2cc(-c3c[nH]c4cc(F)ccc34)ccc2S1(=O)=O` (single isomer, unassigned; (-)) [Example 98, (−)-3-(5-(6-fluoro-1H-indol-3-yl)-3-methyl-1,1-dioxidobenzo[d]isothiazol-2(3H)-yl)-2-hydroxy-N-methylpropanamide] came in with an IC50 of 115 nM.

`CNC(=O)CCN1Cc2cc(-c3c[nH]c4cc(F)ccc34)ccc2S1(=O)=O` [Example 43, 3-(5-(6-fluoro-1H-indol-3-yl)-1,1-dioxidobenzo[d]isothiazol-2(3H)-yl)-N-methylpropanamide]: 136 nM corresponded to half-maximal inhibition (IC50).

`O=S1(=O)NC(CO)c2cc(-c3c[nH]c4cc(F)ccc34)ccc21` (single isomer, unassigned; (-)) [Example 12, (−)-5-(6-fluoro-1H-indol-3-yl)-3-(hydroxymethyl)-2,3-dihydrobenzo[d]isothiazole 1,1-dioxide]: the midpoint of inhibition, the IC50, lay at 74 nM.

Take `CNC(=O)C(O)CN1C(C)c2cc(-c3c[nH]c4cc(F)ccc34)ccc2S1(=O)=O` (single isomer, unassigned; (-)) [Example 100, (−)-3-(5-(6-fluoro-1H-indol-3-yl)-3-methyl-1,1-dioxidobenzo[d]isothiazol-2(3H)-yl)-2-hydroxy-N-methylpropanamide]: the IC50 turned out to be 33 nM.

Regarding `CNC(=O)CN1C(CO)c2cc(-c3c[nH]c4cc(F)ccc34)ccc2S1(=O)=O` (single isomer, unassigned; (+)) [Example 128, (+)-2-(5-(6-fluoro-1H-indol-3-yl)-3-(hydroxymethyl)-1,1-dioxidobenzo[d]isothiazol-2(3H)-yl)-N-methylacetamide], the IC50 was found to be 79 nM.

The compound `CS(=O)(=O)NCC1NS(=O)(=O)c2ccc(-c3c[nH]c4cc(F)ccc34)cc21` (single isomer, unassigned; (-)) [Example 139, (−)-N-((5-(6-fluoro-1H-indol-3-yl)-1,1-dioxido-2,3-dihydrobenzo[d]isothiazol-3-yl)methyl)methanesulfonamide] gave an IC50 of 520 nM.

For `CNC(=O)CCN1C(C)c2cc(-c3c[nH]c4cc(F)ccc34)ccc2S1(=O)=O` (single isomer, unassigned; (+)) [Example 45, (+)-3-(5-(6-fluoro-1H-indol-3-yl)-3-methyl-1,1-dioxidobenzo[d]-isothiazol-2(3H)-yl)-N-methylpropanamide], half-maximal inhibition (IC50) was put at 71 nM.

`CC1c2cc(-c3c[nH]c4cc(F)ccc34)ccc2S(=O)(=O)N1CCS(C)(=O)=O` (single isomer, unassigned; (+)) [Example 53, (+)-5-(6-fluoro-1H-indol-3-yl)-3-methyl-2-(2-(methylsulfonyl)ethyl)-2,3-dihydrobenzo[d]isothiazole 1,1-dioxide] came in with an IC50 of 70 nM.

`CNC(=O)C1NS(=O)(=O)c2ccc(-c3c[nH]c4cc(F)ccc34)cc21` (single isomer, unassigned; (-)) [Example 17, (−)-5-(6-fluoro-1H-indol-3-yl)-N-methyl-2,3-dihydrobenzo[d]isothiazole-3-carboxamide 1,1-dioxide] registered an IC50 of 10000 nM.

`NC(=O)C1NS(=O)(=O)c2ccc(-c3c[nH]c4cc(F)ccc34)cc21` (single isomer, unassigned; (-)) [Example 15, (−)-5-(6-fluoro-1H-indol-3-yl)-2,3-dihydrobenzo[d]-Isothiazole-3-carboxamide 1,1-dioxide] had an IC50 of 2070 nM.

In turn, `NCC1NS(=O)(=O)c2ccc(-c3c[nH]c4cc(F)ccc34)cc21` (single isomer, unassigned; (+)) [Example 19, (+)-3-(aminomethyl)-5-(6-fluoro-1H-indol-3-yl)-2,3-dihydrobenzo[d]isothiazole 1,1-dioxide] came in with an IC50 of 311 nM.

For the compound `CC1c2cc(-c3c[nH]c4cc(F)ccc34)ccc2S(=O)(=O)N1CC1(C)COC(=O)N1` (single isomer, unassigned; (-)) [Example 88, (−)-4-((5-(6-fluoro-1H-indol-3-yl)-3-methyl-1,1-dioxidobenzo[d]isothiazol-2(3H)-yl)methyl)-4-methyloxazolidin-2-one], the midpoint of inhibition, the IC50, lay at 68 nM.

Consider `CC(C)C1NS(=O)(=O)c2ccc(-c3c[nH]c4cc(F)ccc34)cc21` (single isomer, unassigned; (+)) [Example 8, (+)-5-(6-fluoro-1H-indol-3-yl)-3-isopropyl-2,3-dihydrobenzo[d]isothiazole 1,1-dioxide], for which it took 47 nM to reach half-maximal inhibition (IC50).
